Source: patent publication US7208528B1, “Polyamine analogues as therapeutic and diagnostic agents” (MediQuest Therapeutics, Inc., priority 1997, dated 2007)

Assays:
[1] = tested on: polyamine transporter (PATr); test: Polyamine transport (PAT) inhibition assay, 3H-spermidine uptake into MDA-MB-231 cells; type: cell-based, human; settings: for Ki: MDA-MB-231 cells
Procedure: (§1) The radiometric assay uses radiolabeled polyamines such as putrescine, spermidine or spermine, but, due to the low signal, large numbers of adherent or non-adherent cells are required. Additional care is required with spermine due to its nonspecific adsorption to cells and plastics. Cells are mixed with the test compounds and the radiolabeled polyamine to initiate the assay. The cells are incubated for 1–60 minutes, depending on cell type. The assay is terminated by removal of the medium and cooling the plates to 4° C. The cells are then washed with cold medium three times, dissolved in 0.1% sodium dodecyl sulfate and the radioactivity in solution is then determined by scintillation counting. This assay is difficult to scale up to a high throughput procedure due to the low signal from the radiolabel and the handling requirements inherent in procedures with radioactivity.
Therefore, the growth assay and a kinetic transport assay have been used to validate transport inhibition.
The polyamine analogues and derivatives of the invention may be evaluated for their ability to inhibit the uptake of spermidine into MDA cells in culture. Joro spider toxin JSTx-3 is available from Calbiochem; 1-Naphthylacetylspermine is available from RBI. Deoxyspergualin was a generous gift from Paul Gladstone.
300 nM 1202 was the maximum concentration tested in initial rate transport assays.

MDA-MB-231 cells = test: Growth assay of MDA-MB-231 cells with ODC inhibitor (DFMO) and 1 μM spermidine; settings: for concentration added to culture media at which growth inhibition due to 1202 and DFMO begins to reverse: cells treated with 1202 and DFMO; for IC50 with DFMO, result in words / IC50: 1 μM spermidine; for IC50: read-out: IC50 for growth in combination with ODC inhibitor (DFMO), 230 μM DFMO; for R, ratio of IC50 in the absence of DFMO over IC50 in the presence of DFMO: MDA growth assay
Procedure: The estrogen insensitive human breast carcinoma MDA-MB-231 cell line as the primary cell line in the screen. […] In order to optimize the screen for polyamine transport inhibition, 1.0 μM spermidine was added to media to reverse the effects of ODC inhibitors. The assay was also performed over seven days because this allows for the greatest dynamic range in cell growth due to the mechanism of ODC inhibitors. Cells need to divide several times before the intracellular level of polyamines begin to decrease to growth inhibitory levels.
Compounds were tested for their ability to inhibit cell growth in the presence of 1 μM spermidine and 230 μM ODC inhibitor for the MDA-MB-231 cells or 1 mM ODC inhibitor for the PC3 cells.
In our six day growth assays, 1202 was tested at increasing concentrations with the optimal concentration of DFMO.

[2] = tested on: MDA breast carcinoma cells; test: Rescue from DFMO-induced growth inhibition of MDA cells without added polyamines, six day growth assay; type: cell-based, human; settings: absence of polyamines
Procedure: An additional series of spermine amides were evaluated to extend the structure-activity relationship around this polyamine transport target.
Growth assays were done over a six day period in order to allow for polyamine depletion within cells. When synthesis of polyamines is inhibited, cells compensate by increasing transport of extracellular polyamines into the cell. Over the time course of the assay, polyamines in the culture media may be depleted resulting in growth inhibition.

Solubility in water = type: physicochemical; settings: pH 7.0
cancer cells = settings: cited from earlier work
[3] = tested on: polyamine transporter (PATr); test: Radiometric PAT assay in A172 glioblastoma cells; type: cell-based; settings: A172 cell line
Procedure: as §1

[4] = target: spermidine/spermine acetyltransferase (SSAT) (Homo sapiens, UniProt P21673); test: Spermidine/spermine acetyltransferase enzymatic activity, 14C-acetyl CoA incorporation; type: biochemical; settings: 1 mM spermidine, 1 mM 14C-acetyl CoA, pH 7.8
Sequence of spermidine/spermine acetyltransferase (SSAT) (P21673 whole entry, species assumed): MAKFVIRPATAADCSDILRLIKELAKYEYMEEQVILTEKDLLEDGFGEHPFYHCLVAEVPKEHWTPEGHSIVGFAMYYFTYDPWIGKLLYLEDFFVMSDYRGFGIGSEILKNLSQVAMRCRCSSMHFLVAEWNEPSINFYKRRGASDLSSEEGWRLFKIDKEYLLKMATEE
Procedure: A study was conducted to determine whether the compositions of the present invention, designed as PAT inhibitors, had other activities on the PA system. Specifically, the ability of DACS to inhibit an enzyme involved in PA recycling was evaluated. The method used was as described in Casero, R. A. et al., Biochem. J. 270:615–620 (1990) hereby incorporated by reference in its entirety. This assay measures the incorporation of ^14C-labeled acetyl CoA into spermidine to form acetylspermidine. Varying concentrations of DACS were added to a reaction mixture containing HEPES buffer, pH 7.8, 1 mM spermidine, and 1 mM ^14C-Acetyl CoA. The product is isolated by binding to phosphocellulose filter paper and the extent of reaction is determined by scintillation counting.

[5] = tested on: T-cell acute lymphoblastic leukemias (ALL), glioblastomas, prostate, and colon cell lines; test: In vitro test in combination with ODC inhibitors against several human cancer cell lines; type: cell-based
Procedure: DACS was tested in vitro in combination with ODC inhibitors against several human cancer cell lines. These include T-cell acute lymphoblastic leukemias (ALL), glioblastomas, prostate, and colon cell lines.

| Structure (SMILES) | Ki [1] | IC50 (MDA-MB-231 cells) | other results |
| --- | --- | --- | --- |
| NCCCCNCCCN [spermidine, reference compound] |  |  | Km ([1]; MDA cells, read-out: Km for the transport system): 0.52 µM; concentration added to culture media at which growth inhibition due to 1202 and DFMO begins to reverse (MDA-MB-231 cells): 1 µM |
| NCCCCN [PUT, putrescine, reference compound] |  |  | concentration added to culture media at which growth inhibition due to 1202 and DFMO begins to reverse (MDA-MB-231 cells): greater than 10 μM |
| NCCCNCCCCNCCCN [SPM, spermine, reference compound] |  |  | concentration added to culture media at which growth inhibition due to 1202 and DFMO begins to reverse (MDA-MB-231 cells): 1 µM |
| CC(C)CC(N)C(=O)NCCCNCCCCNCCCN [Compound 1230, N^1-Spermine-L-leucinyl amide] | 32 nM |  | IC50 with DFMO, result in words (MDA-MB-231 cells): failed to give effective IC50 values |
| NCCCNCCCCNCCC(=O)NCCCCCNC(=O)[C@H](CC(N)=O)NC(=O)Cc1ccc(O)cc1O [Compound 1111, reference compound] | 190 nM |  |  |
| NCCCNCCCCNCCCNC(=O)[C@@H]1CCCN1 [Compound 1159, N^1-Spermine-L-prolinyl amide] | 38 nM | 5000 nM | rescue of cells from growth inhibitory effects of DFMO [2]: able to rescue |
| NCCCNCCCCNCCCNC(=O)C(N)Cc1ccc(O)cc1 [Compound 1173, N^1-Spermine-L-tyrosinyl amide] | 77 nM |  |  |
| NCCCNCCCCNCCCNC(=O)C(N)CO [Compound 1187, N^1-Spermine-L-serinyl amide] | 45 nM | 26000 nM |  |
| CC(C)(C)OC(=O)NCCCNCCCCNCCCN [Compound 1163, N^1-boc-spermine] | 83 nM |  |  |
| CC(C)(C)C(N)C(=O)NCCCNCCCCNCCCN [Compound 1194, N^1-Spermine-L-^tbutylglycinyl amide] | 212 nM | 11000 nM |  |
| CCC(C)C(N)C(=O)NCCCNCCCCNCCCN [Compound 1228, N^1-Spermine-L-isoleucinyl amide] | 124 nM | 9000 nM |  |
| NCCCNCCCCNCCCNC(=O)C(N)CC1CCCCC1 [Compound 1227, N^1-Spermine-L-cyclohexanealanyl amide] | 241 nM |  |  |
| NCCCNCCCCNCCCNC(=O)CCCCCNS(=O)(=O)c1ccc2oc3ccccc3c2c1 [Compound 6] |  |  | R, ratio of IC50 in the absence of DFMO over IC50 in the presence of DFMO (MDA-MB-231 cells): 220 |
| CC(C)(N)C(=O)NCCCNCCCCNCCCN [Compound 1220, N^1-Spermine-α-aminoisobutyryl amide] | 160 nM | 8000 nM |  |
| CC(=O)NCCCNCCCCNCCCN [Compound 1110, N^1-acetylspermine, reference compound] | 162 nM |  | greater affinity for the transport system than spermidine ([1]; Ki versus Km of spermidine): 3 fold |
| NCCCCC(N)C(=O)NCCCNCCCCNCCCN [Compound 1202, N^1-Spermine-L-lysinyl amide] |  |  | solubility (Solubility in water): ≥ 100000 µM |
| NCCCNCCCCNCCCNC(=O)CN [Compound 1125, N^1-Spermine-glycinyl amide] | 87 nM |  | IC50 with DFMO, result in words (MDA-MB-231 cells): failed to give effective IC50 values; rescue of cells from growth inhibitory effects of DFMO [2]: able to rescue |
| NCCCCN(CCCN)CCCNC(=O)CCCc1ccc(N(CCCl)CCCl)cc1 [chlorambucil-spermidine conjugate] |  |  | increase in cytotoxicity compared to chlorambucil alone (cancer cells): ≤ 225 fold |
| CC(C)C(N)C(=O)NCCCNCCCCNCCCN [Compound 1196, N^1-Spermine-D-valinyl amide] | 48 nM | 9000 nM |  |

| Structure (SMILES) | Ki [1] | IC50 (MDA-MB-231 cells) | other results |
| --- | --- | --- | --- |
| NCCCNCCCCNCCCNC(=O)CCN [Compound 1177, N^1-Spermine-β-alanyl amide] | 71 nM |  | IC50 with DFMO, result in words (MDA-MB-231 cells): failed to give effective IC50 values |
| CSCCC(N)C(=O)NCCCNCCCCNCCCN [Compound 1164, N^1-Spermine-L-methionyl amide] | 34 nM |  | IC50 with DFMO, result in words (MDA-MB-231 cells): failed to give effective IC50 values |
| NCCCNCCCCNCCCNC(=O)C(N)Cc1c[nH]c2ccccc12 [Compound 1095, N^1-Spermine-L-tryptophanyl amide] | 162 nM | 15000 nM |  |
| NCCCNCCCCNCCCNC(=O)C(N)CC(N)=O [Compound 1131, N^1-Spermine-L-asparaginyl amide] | 32 nM |  |  |
| NCCCCCC(=O)NCCCNCCCCNCCCN [Compound 1094, N^1-[6-aminocaproylspermine]] | 69 nM |  | rescue of cells from growth inhibitory effects of DFMO [2]: able to rescue |
| NCCCNCCCCNCCCNC(=O)C(N)Cc1c[nH]c2ccccc12 [Compound 1309, N^1-Spermine-D-tryptophanyl amide] | 26 nM |  |  |
| NCCCNCCCCNCCCNC(=O)C12CC3CC(CC(C3)C1)C2 [Compound 1235, N^1-spermine 1-adamantylamide] | 1140 nM |  |  |
| CC(O)C(N)C(=O)NCCCNCCCCNCCCN [Compound 1207, N^1-Spermine-L-threoninyl amide] | 130 nM | 6000 nM |  |
| NCCCNCCCCNCCCNC(=O)C(N)CCC(N)=O [Compound 1154, N^1-Spermine-L-glutaminyl amide] | 47 nM |  | IC50 with DFMO, result in words (MDA-MB-231 cells): failed to give effective IC50 values |
| N=C(N)NCCCCCCC(=O)NC(O)C(=O)NCCCCNCCCN (centres unmarked) [Compound 1085, deoxyspergualin, reference compound] | 81 nM |  |  |
| CC(C)C(N)C(=O)NCCCNCCCCNCCCN [Compound 1157, N^1-Spermine-L-valinyl amide] | 84 nM | 16000 nM | rescue of cells from growth inhibitory effects of DFMO [2]: not able to rescue |
| NCCCNCCCCNCCCNC(=O)CCCCCNS(=O)(=O)c1ccc(CNC(=O)c2ccc(Cl)cc2)s1 [Compound 5, N^1-[(N^6-5-(4-chlorobenzamidomethyl)-thiophene-2-sulfonyl)-6-aminocaproyl]spermine] |  |  | R, ratio of IC50 in the absence of DFMO over IC50 in the presence of DFMO (MDA-MB-231 cells): 210 |
| CN(C)CCCN1c2ccccc2CCc2ccccc21 [Compound 165, imipramine, reference compound] |  |  | type of PAT inhibition ([1]; A172 and MDA cells): non-competitive; inhibition of the PAT assay ([1]; MDA cell line): inhibited; inhibition of the PAT assay [3]: inhibited |
| NCCCNCCCCNCCCNC(=O)Cc1cccc2ccccc12 [Compound 1022, 1-Naphthylacetylspermine, reference compound] | 230 nM | 8300 nM |  |
| NCCCNCCCCNCCCNC(=O)CC12CC3CC(CC(C3)C1)C2 [Compound 1212, N^1-Spermine 2-(1-adamantyl)acetamide] |  | 9000 nM |  |
| CC(N)C(=O)NCCCNCCCCNCCCN [Compound 1178, N^1-Spermine-L-alanyl amide] | 244 nM |  |  |
| NCCCNCCCCNCCCNC(=O)C(N)CCCN [Compound 1224, N^1-Spermine-L-ornithyl amide] | 47 nM | 3000 nM | rescue of cells from growth inhibitory effects of DFMO [2]: not able to rescue |
| CN(C)c1cccc2c(S(=O)(=O)NCCCCCC(=O)NCCCNCCCCNCCCN)cccc12 [Compound 4, N^1-[(N^6-dansyl)-6-aminocaproyl]spermine] |  | 600 nM | affinity higher than the compound reported by Felschow et al. [1]: 100 times; increase in binding to the PATr by six carbon linker ([1]; versus compound without linker): 10 fold; concentration at which compound alone becomes growth inhibitory (MDA-MB-231 cells; alone, without ODC inhibitor): 300 µM; reduction of cell growth (MDA-MB-231 cells; with ODC inhibitor in the presence of polyamines, day 3): 69%; inhibition of SSAT enzymatic activity [4]: inhibited; effect against tumor cell lines in vitro [5]: effective |
